From patent US8501732B2, “Aminomethyl quinolone compounds” (Hoffmann-La Roche Inc., priority 2011, dated 2013) come the findings set out here.

For one test, the target named is JNK1 (Homo sapiens (Human), UniProt P45983). Nature of the test: In Vitro JNK1 Assay (TR-FRET, phosphorylation of GST-c-Jun). It counts as biochemical.
Chain of JNK1 (P45983 whole entry): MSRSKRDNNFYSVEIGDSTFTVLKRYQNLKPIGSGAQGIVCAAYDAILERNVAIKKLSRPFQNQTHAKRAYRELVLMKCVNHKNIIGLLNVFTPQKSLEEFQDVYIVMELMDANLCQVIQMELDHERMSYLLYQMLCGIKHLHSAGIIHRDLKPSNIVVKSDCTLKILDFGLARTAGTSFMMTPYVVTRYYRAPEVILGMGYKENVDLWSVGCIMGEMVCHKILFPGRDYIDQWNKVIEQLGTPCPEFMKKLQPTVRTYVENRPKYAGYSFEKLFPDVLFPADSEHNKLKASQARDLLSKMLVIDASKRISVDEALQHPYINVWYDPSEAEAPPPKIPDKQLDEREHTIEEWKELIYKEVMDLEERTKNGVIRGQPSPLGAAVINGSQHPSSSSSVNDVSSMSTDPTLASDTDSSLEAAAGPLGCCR
Conditions: not given
The procedure: Phosphorylation of GST-c-Jun protein (amino acid residues 1-79) was measured as JNK1 activity. […] The reaction buffer contained 50 mM HEPES, pH […], 1 mM DTT, 0.1 mM Na3VO4 and 0.2 mg/mL BSA. After 30 min. incubation at room temperature, the reaction was terminated by adding buffer containing 8 mM EDTA and a polyclonal anti-phospho-c-Jun antibody (Cell Signaling #9261L), followed by an additional incubation of 30 min. at room temperature. […] Time-resolved Fluorescence Resonance Energy Transfer (TR-FRET) signals were measured 1 hr. later on the EnVision reader (Perkin Elmer). Compound potency was assessed at 10 serially diluted concentrations. Percentage of inhibition at each concentration was determined to generate an IC50 value for each compound.
`O=C(NCc1cn(-c2ccccc2)c2cc(Cl)ccc2c1=O)NC1CCN(C(=O)Oc2ccccc2)CC1` [Example I-193, 4-[3-(7-Chloro-4-oxo-1-phenyl-1,4-dihydro-quinolin-3-ylmethyl)-ureido]-piperidine-yl-carboxylic acid phenyl ester] registered an IC50 of 180 nM.

Still in this test, the particulars now being: 0.2 nM active JNK1 kinase, 26.7 nM GST-c-Jun, 2 μM ATP, 30 min at room temperature.
For the molecule `O=C(NCc1cn(-c2ccccc2)c2cc(Cl)ccc2c1=O)c1ccc(-c2cnco2)cc1` [Example I-47, N-(7-Chloro-4-oxo-1-phenyl-1,4-dihydro-quinolin-3-ylmethyl)-4-oxazol-5-yl-benzamide], half-maximal inhibition (IC50) required 170 nM.
On to `O=C(NCc1cn(-c2ccccc2)c2cc(Cl)ccc2c1=O)c1ccc(=O)n(Cc2ccccc2)c1` [Example I-52, 1-Benzyl-6-oxo-1,6-dihydro-pyridine-3-carboxylic acid (7-chloro-4-oxo-1-phenyl-1,4-dihydro-quinolin-3-ylmethyl)-amide], for which the 50% inhibitory concentration (IC50) was determined as 380 nM.
On the same count and under the same terms, for `COC(=O)c1c(CNc2nccc3ccccc23)c(=O)c2ccc(Cl)cc2n1-c1ccccc1` [Example I-207, 7-Chloro-3-(isoquinolin-1-ylaminomethyl)-4-oxo-1-phenyl-1,4-dihydro-quinoline-2-carboxylic acid methyl ester] the value was 110 nM.
Molecule `O=C(NCc1cn(-c2ccccc2)c2cc(Cl)ccc2c1=O)Nc1ccccc1` [Example I-201, 1-(7-Chloro-4-oxo-1-phenyl-1,4-dihydro-quinolin-3-ylmethyl)-3-phenyl-urea] gave an IC50 of 550 nM.
Still for that read-out and setting: the result for `O=C(NCc1cn(-c2ccccc2)c2cc(Cl)ccc2c1=O)NC1CCN(C(=O)c2ccccc2)CC1` [Example I-194, 1-(1-Benzoyl-piperidin-4-yl)-3-(7-chloro-4-oxo-1-phenyl-1,4-dihydro-quinolin-3-yl-methyl)-urea] reads 190 nM; that for `N#C/N=C(/NCc1cn(-c2ccccc2)c2cc(Cl)ccc2c1=O)Nc1ccccc1` [Example I-178, [(7-Chloro-4-oxo-1-phenyl-1,4-dihydro-quinolin-3-ylmethyl)-amino]-phenylamino-methylene-cyanamide], 2700 nM; that for `O=C(NCc1cn(-c2ccccc2)c2cc(Cl)ccc2c1=O)N1CCOCC1` [Example I-200, Morpholine-4-carboxylic acid (7-chloro-4-oxo-1-phenyl-1,4-dihydro-quinolin-3-ylmethyl)-amide], 850 nM.
Molecule `CC(C)(C)OC(=O)N[C@H]1CC[C@H](NC(=O)NCc2cn(-c3ccccc3)c3cc(Cl)ccc3c2=O)CC1` [Example I-182, {4-[3-(7-Chloro-4-oxo-1-phenyl-1,4-dihydro-quinolin-3-ylmethyl)-ureido]-cyclohexyl}-carbamic acid tert-butyl ester] gave an IC50 of 700 nM.
Take `O=C(NCc1cn(-c2ccccc2)c2cc(Cl)ccc2c1=O)c1ccc(Cl)nc1` [Example I-61, 6-Chloro-N-(7-chloro-4-oxo-1-phenyl-1,4-dihydro-quinolin-3-ylmethyl)-nicotinamide]: the IC50 amounted to 430 nM.
In the case of `Cn1cc(C(=O)NCc2cn(-c3ccccc3)c3cc(Cl)ccc3c2=O)nn1` [Example I-53, 1-Methyl-1H-[1,2,3]triazole-4-carboxylic acid (7-chloro-4-oxo-1-phenyl-1,4-dihydro-quinolin-3-ylmethyl)-amide], the 50% inhibitory concentration (IC50) came out at 560 nM.
On to `CN(C)C(=O)c1c(CNC(=O)c2ccc(N3CCOCC3)cc2)c(=O)c2ccc(Cl)cc2n1-c1ccccc1` [Example I-17, 7-Chloro-3-[(4-morpholin-4-yl-benzoylamino)-methyl]-4-oxo-1-phenyl-1,4-dihydro-quinoline-2-carboxylic acid dimethylamide], for which the IC50 worked out at 140 nM.
`CC(C)(C)OC(=O)N1CCC(NC(=O)NCc2cn(-c3ccccc3)c3cc(Cl)ccc3c2=O)C1` (centres unmarked) [Example I-183, 3-[3-(7-Chloro-4-oxo-1-phenyl-1,4-dihydro-quinolin-3-ylmethyl)-ureido]-pyrrolidine-1-carboxylic acid tert-butyl ester] had a 50% inhibitory concentration (IC50) of 910 nM.
`COC(=O)c1ccc(NC(=O)NCc2cn(-c3ccccc3)c3cc(Cl)ccc3c2=O)cc1` [Example I-206, 4-[3-(7-Chloro-4-oxo-1-phenyl-1,4-dihydro-quinolin-3-ylmethyl)-ureido]-benzoic acid methyl ester] came in with a half-maximal inhibitory concentration (IC50) of 2700 nM.
As for `O=C(NCc1cn(-c2ccccc2)c2cc(Cl)ccc2c1=O)N1CCCC1` [Example I-186, Pyrrolidine-1-carboxylic acid (7-chloro-4-oxo-1-phenyl-1,4-dihydro-quinolin-3-ylmethyl)-amide], the IC50 is 1200 nM.
`COC(=O)c1c(CNC(=O)c2ccccn2)c(=O)c2ccc(Cl)cc2n1-c1ccccc1` [Example I-146, 7-Chloro-4-oxo-1-phenyl-3-{[(pyridine-2-carbonyl)-amino]-methyl}-1,4-dihydro-quinoline-2-carboxylic acid methyl ester] registered a concentration for half-maximal inhibition (IC50) of 100 nM.
Same read-out and setting: the result for `O=C(NCc1cn(-c2ccccc2)c2cc(Cl)ccc2c1=O)Nc1ccc(OC(F)(F)F)cc1` [Example I-205, 1-(4-trifluoromethoxy-phenyl)-3-(7-chloro-4-oxo-1-phenyl-1,4-dihydro-quinolin-3-yl-methyl)-urea] reads 1800 nM; that for `O=c1c(CNc2cc(N3CCCCC3)ncn2)cn(-c2ccccc2)c2cc(Cl)ccc12` [Example I-173, 7-Chloro-1-phenyl-3-[(6-piperidin-1-yl-pyrimidin-4-ylamino)-methyl]-1H-quinolin-4-one], 140 nM; that for `O=C(NCc1cn(-c2ccccc2)c2cc(Cl)ccc2c1=O)c1ccn(Cc2cccc(Cl)c2)c(=O)c1` [Example I-44, 1-(3-Chloro-benzyl)-2-oxo-1,2-dihydro-pyridine-4-carboxylic acid (7-chloro-4-oxo-1-phenyl-1,4-dihydro-quinolin-3-ylmethyl)-amide], 110 nM.
Regarding `O=c1c(CNc2nc3ccccc3[nH]2)cn(-c2ccccc2)c2cc(Cl)ccc12` [Example I-176, 3-[(1H-Benzoimidazol-2-ylamino)-methyl]-7-chloro-1-phenyl-1H-quinolin-4-one], 850 nM corresponded to half-maximal inhibition (IC50).
`COc1ccc(NC(=O)NCc2cn(-c3ccccc3)c3cc(Cl)ccc3c2=O)cc1` [Example I-203, 1-(7-Chloro-4-oxo-1-phenyl-1,4-dihydro-quinolin-3-ylmethyl)-3-(4-methoxy-phenyl)-urea] had an IC50 of 650 nM.
The same measure, in the same setting: for `CC(C)(C)OC(=O)N1CCC(NC(=O)NCc2cn(-c3ccccc3)c3cc(Cl)ccc3c2=O)CC1` [Example I-192, 4-[3-(7-Chloro-4-oxo-1-phenyl-1,4-dihydro-quinolin-3-ylmethyl)-ureido]-piperidine-1-carboxylic acid tert-butyl ester] the value was 60 nM; for `O=C(NCc1cn(-c2ccccc2F)c2cc(F)ccc2c1=O)c1ccc(Cl)nc1` [Example I-105, 6-Chloro-N-[7-fluoro-1-(2-fluoro-phenyl)-4-oxo-1,4-dihydro-quinolin-3-yl-methyl]-nicotinamide], 150 nM; for `O=C(NCc1cn(-c2ccccc2)c2cc(Cl)ccc2c1=O)c1cc(F)ccc1F` [Example I-60, N-(7-Chloro-4-oxo-1-phenyl-1,4-dihydro-quinolin-3-ylmethyl)-2,5-difluoro-benzamide], 1900 nM.
The molecule `O=C(NCc1cn(-c2ccccc2)c2cc(Cl)ccc2c1=O)N1CCC(c2ccccc2)CC1` [Example I-190, 4-Phenyl-piperidine-1-carboxylic acid (7-chloro-4-oxo-1-phenyl-1,4-dihydro-quinolin-3-ylmethyl)-amide] registered a half-inhibitory concentration (IC50) of 2100 nM.
The molecule `CN(C)C(=O)c1c(CNC(=O)c2ccc3c(c2)OCCO3)c(=O)c2ccc(Cl)cc2n1-c1ccccc1` [Example I-21, 7-Chloro-3-{[(2,3-dihydro-benzo[1,4]dioxine-6-carbonyl)-amino]-methyl}-4-oxo-1-phenyl-1,4-dihydro-quinoline-2-carboxylic acid dimethylamide] registered a half-maximal inhibitory concentration (IC50) of 460 nM.
`O=C(NCc1cn(-c2ccccc2)c2cc(Cl)ccc2c1=O)NC1CCCC1` [Example I-184, 1-(7-Chloro-4-oxo-1-phenyl-1,4-dihydro-quinolin-3-ylmethyl)-3-cyclopentyl-urea] came in with a half-maximal inhibitory concentration (IC50) of 920 nM.
Still for that read-out and setting: for `CC(C)(C)OC(=O)N[C@H]1CC[C@@H](NC(=O)NCc2cn(-c3ccccc3)c3cc(Cl)ccc3c2=O)CC1` [Example I-181, {4-[3-(7-Chloro-4-oxo-1-phenyl-1,4-dihydro-quinolin-3-ylmethyl)-ureido]-cyclohexyl}-carbamic acid tert-butyl ester] the value was 200 nM; for `CN1CCN(C(=O)NCc2cn(-c3ccccc3)c3cc(Cl)ccc3c2=O)CC1` [Example I-187, 4-Methyl-piperazine-1-carboxylic acid (7-chloro-4-oxo-1-phenyl-1,4-dihydro-quinolin-3-ylmethyl)-amide], 1400 nM; for `O=c1c(CNc2nc3ccccc3s2)cn(-c2ccccc2)c2cc(Cl)ccc12` [Example I-175, 3-(Benzothiazol-2-ylaminomethyl)-7-chloro-1-phenyl-1H-quinolin-4-one], 700 nM.
As to `COC(=O)c1c(CNC(=O)C2CCN(S(C)(=O)=O)CC2)c(=O)c2ccc(Cl)cc2n1-c1ccccc1` [Example I-131, 7-Chloro-3-{[(1-methanesulfonyl-piperidine-4-carbonyl)-amino]-methyl}-4-oxo-1-phenyl-1,4-dihydro-quinoline-2-carboxylic acid methyl ester], the midpoint of inhibition, the IC50, lay at 640 nM.
Regarding `CN(C)C(=O)c1c(CNC(=O)c2ccc(F)cc2)c(=O)c2ccc(Cl)cc2n1-c1ccccc1` [Example I-20, 7-Chloro-3-[(4-fluoro-benzoylamino)-methyl]-4-oxo-1-phenyl-1,4-di-hydro-quinoline-2-carboxylic acid dimethylamide], it took 240 nM to reach half-maximal inhibition (IC50).

The IC50 is the concentration that inhibits the measured activity by half. Read a high IC50 as lower potency.
